Assays:
[1] = target: T1, endothelial cell ion channel complex TRPV4-KCa2.3 (Mus musculus, UniProt P58391+Q9EPK8); experiment: FRET AB detection of coupling of TRPV4 and KCa2.3 in mesentery endothelial cells of hypertensive mice; format: cell-based, C57BL/6J mouse; settings: 10 μM, 96 h, endothelial cells of 8% high-salt, L-NAME and ANG-2 hypertensive mice; FIG. 4
T1 construct: The mesentery endothelial cells of the mice in the high blood pressure model are primarily isolated; endogenous in cells; host or cells: primary mesenteric endothelial cells of hypertensive C57BL/6J mice (high-salt, L-NAME, ANG-2 models)
Procedure: (§1) C57BL/6J Male mice, 8 weeks aged, are selected, and freely fed for one week. Then, the mice are classified into four groups, respectively 8% high-salt group, L-NAME group, ANG-2 group and reference group. The basic blood pressures of the four groups of mice are measured first to determine the base line of the blood pressure of the mice. The conditions of the reference group are not changed, and the blood pressure is measured every day. The high-salt group is fed with 8% high-salt feed, and then the blood pressure is measured every day. The L-name group is fed with 5% L-NAME solution, and then the blood pressure is measured every day. The ANG-2 group is injected with 4% chloral hydrate to perform anesthesia; then, the mice are respectively operated by implanting a pump on the back, wherein each pump is injected with 200 ul of 2.88 mg/ml ANG-2 solution; then, the mice are sutured and allowed to recover; after approximately 3 days, the measurement of the blood pressure begins, and then continues for about 4 weeks. […]
The mesentery endothelial cells of the mice in the high blood pressure model are primarily isolated and incubated in a constant-temperature cell incubator. […] Then, the coupling of the two proteins before and after the mutation is detected using the laser scanning confocal microscope in the FRET AB mode.

[2] = system: three high blood pressure types of mice models; experiment: Blood pressure in three high blood pressure types of mice models; format: in vivo, C57BL/6J mouse; settings: 1 mg/kg injected via the caudal veins; 8% high-salt, L-NAME and ANG-2 models; FIG. 5
Procedure: as §1
Experimental method: three high blood pressure types of mice models are constructed according to the method in Embodiment 4. After modeling succeeds, JNc-440 (1 mg/kg) is injected via the caudal veins, and then the blood pressure of the mice is measured and observed.

[3] = target: T2, protein KCa2.3 (structural domain 17C) (Mus musculus, UniProt P58391); experiment: Streptavidin magnetic bead pull-down of biotinylated JNc-440 from endothelial cell protein, Western blot detection; format: binding, C57BL/6 J mouse; settings: FIG. 3
T2 construct: RIPA Lysis is carried out to obtain cellular protein; endogenous in cells; host or cells: primary mesenteric endothelial cells of C57BL/6J mouse
Procedure: (§2) The endothelial cells of C57BL/6 J mouse mesentery are primarily isolated, and then incubated in a constant-temperature cell incubator. Biotinylated JNc-440 (10 μM/L) is added or oligopeptide and biotinylated JNc-440 (10 μM/L) are added into the incubator to jointly incubated with the cells for 96 h. RIPA Lysis is carried out to obtain cellular protein. The protein supernatant is added with 10 μL streptavidin magnetic beads, and the mixture is incubated at a temperature of 4° C. for a whole night. Suspension generated after the incubation is absorbed using a magnetic stand to obtain an avidin magnetic bead-biotinylated JNc-440-protein complex. The complex is suspended with 50 μL of 1× Loading buffer, and boiled for 5 min in a boiling bath. Samples are separated through SDS-PAGE. Proteins are transferred onto a PVDF membrane. The PVDF membrane with the proteins are confined in 5% BSA for 4 h at room temperature, then incubated with a primary antibody at a temperature of 4° C. for a whole night, and next incubated with a secondary antibody for 2 h at room temperature. ECL color developing agent is added. A protein imaging system is used to detect and analyze the obtained product.

[4] = target: T3, protein TRPV4 (structural domain AR2) (Mus musculus, UniProt Q9EPK8); experiment: as above; format: binding, C57BL/6 J mouse; settings: FIG. 3
T3 construct: RIPA Lysis is carried out to obtain cellular protein; endogenous in cells; host or cells: primary mesenteric endothelial cells of C57BL/6J mouse
T3 sequence (Q9EPK8 whole entry, the tested form may be a part): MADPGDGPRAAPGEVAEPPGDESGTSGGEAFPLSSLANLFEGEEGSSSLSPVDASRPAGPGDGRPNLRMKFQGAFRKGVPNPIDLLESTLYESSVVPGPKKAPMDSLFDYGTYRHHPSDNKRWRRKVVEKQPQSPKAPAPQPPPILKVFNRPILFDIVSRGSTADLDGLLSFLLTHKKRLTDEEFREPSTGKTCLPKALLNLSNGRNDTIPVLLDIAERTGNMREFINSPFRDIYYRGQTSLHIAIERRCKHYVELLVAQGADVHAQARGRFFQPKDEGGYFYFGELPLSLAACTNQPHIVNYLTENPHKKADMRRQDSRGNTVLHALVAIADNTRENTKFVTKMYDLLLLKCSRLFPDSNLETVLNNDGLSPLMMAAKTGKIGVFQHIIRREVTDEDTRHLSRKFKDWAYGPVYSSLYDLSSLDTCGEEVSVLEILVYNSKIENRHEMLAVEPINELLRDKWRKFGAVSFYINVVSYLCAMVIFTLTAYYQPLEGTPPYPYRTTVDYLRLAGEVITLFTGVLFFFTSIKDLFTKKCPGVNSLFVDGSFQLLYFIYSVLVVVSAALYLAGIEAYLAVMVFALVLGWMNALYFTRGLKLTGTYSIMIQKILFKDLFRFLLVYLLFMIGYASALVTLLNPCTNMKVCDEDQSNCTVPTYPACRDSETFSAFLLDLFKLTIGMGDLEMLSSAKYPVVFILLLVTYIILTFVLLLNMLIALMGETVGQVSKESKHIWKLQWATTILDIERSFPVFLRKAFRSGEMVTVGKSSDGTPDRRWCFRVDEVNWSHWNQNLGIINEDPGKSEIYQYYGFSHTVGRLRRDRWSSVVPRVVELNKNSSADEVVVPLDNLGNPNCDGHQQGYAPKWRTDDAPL
Procedure: as §2

[5] = 10 μM/L, incubated 96 h with primary mouse mesentery endothelial cells

| space coupling degree of the proteins TRPV4 and KCa2.3 (FRET) [1] | capability of binding with the protein KCa2.3 after the oligopeptide 17C is added ([3]; 10 μM/L plus oligopeptide 17C, 96 h, compared with the reference control) | binding with the protein KCa2.3 [3, 5] | capability of binding with the protein TRPV4 after the oligopeptide AR2 is added ([4]; 10 μM/L plus oligopeptide AR2, 96 h) | binding with the protein TRPV4 [4, 5] | SMILES | blood pressure of the mice [2] |
| --- | --- | --- | --- | --- | --- | --- |
| increased obviously |  |  |  |  | O=C(NCCCNC(=O)C(c1ccccc1)c1ccccc1)c1nc(=O)c2ccccc2[nH]1 [JNc-440] | drops obviously |
|  | obviously reduced | can be bound | obviously reduced | can be bound | O=C1NC2CSC(CCCCC(=O)OCCCCCNc3nc(C(=O)NCCCNC(=O)C(c4ccccc4)c4ccccc4)nc4ccccc34)C2N1 (stereo not drawn) [biotinylated JNc-440] |  |

Reference: patent US10336712B2, “Compound for enhancing the coupling degree of complex TRPV4-KCa2.3 and anti-hypertension applications thereof” (Jiangnan University, priority 2017, dated 2019)
